Data from ChEMBL document CHEMBL1201862, “PubChem BioAssay data set” (2004).
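Five compound concentrations were applied to cells in 96-well plates for 48 hours; endpoints were derived by simple linear interpolation of the resulting dose-response curve. Abbreviation: GI50, concentration required for 50% inhibition of growth.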 Active and inactive are the calls of the source. Cut-off read from the data, not from the text of the source: active = GI50 up to about 1.1 µM and inactive = higher.

How the values were obtained:
Test in all cases: growth of human tumour cells (NCI), 48 h
[1] = tested on: A498
[2] = tested on: CAKI-1
[3] = tested on: EKVX
[4] = tested on: HCC 2998
[5] = tested on: HT-29
[6] = tested on: IGROV-1
[7] = tested on: KM12
[8] = tested on: M14
[9] = tested on: Malme-3M
[10] = tested on: NCI-H460
[11] = tested on: OVCAR-3
[12] = tested on: OVCAR-5
[13] = tested on: OVCAR-8
[14] = tested on: SK-MEL-2
[15] = tested on: SK-MEL-5
[16] = tested on: SN12C
[17] = tested on: SNB-19
[18] = tested on: SW-620
[19] = tested on: U-251
[20] = tested on: UACC-257

Row | SMILES | GI50 [1] | GI50 [2] | GI50 [3] | GI50 [4] | GI50 [5] | GI50 [6] | GI50 [7] | GI50 [8] | GI50 [9] | GI50 [10] | GI50 [11] | GI50 [12] | GI50 [13] | GI50 [14] | GI50 [15] | GI50 [16] | GI50 [17] | GI50 [18] | GI50 [19] | GI50 [20]
1 | O=C1c2ccccc2C(=O)c2c(OCC3CO3)ccc(OCC3CO3)c21 (centres undefined) | 17.9 µM (inactive) | 1.91 µM (inactive) | 12.5 µM (inactive) | 16.1 µM (inactive) | 4.84 µM (inactive) | 3.54 µM (inactive) | 5.04 µM (inactive) | 1.3 µM (inactive) | 7.74 µM (inactive) | 1.99 µM (inactive) | 3.4 µM (inactive) | 10.5 µM (inactive) | 1.48 µM (inactive) | 14 µM (inactive) | 5.69 µM (inactive) | 1.07 µM (active) | 7.67 µM (inactive) | 1.1 µM (active) | 2.92 µM (inactive) | 6.04 µM (inactive)
2 | CCN(C(C)=N)c1ccccc1 | 37.5 µM (inactive) | 95.1 µM (inactive) | 52.8 µM (inactive) | > 100 µM (inactive) | – | > 100 µM (inactive) | > 100 µM (inactive) | > 100 µM (inactive) | > 100 µM (inactive) | > 100 µM (inactive) | > 100 µM (inactive) | > 100 µM (inactive) | > 100 µM (inactive) | > 100 µM (inactive) | 35.1 µM (inactive) | 70 µM (inactive) | 78.7 µM (inactive) | > 100 µM (inactive) | > 100 µM (inactive) | 17.2 µM (inactive)
3 | O=C1N[C@@H](c2c[nH]c3ccc(Br)cc23)C(=O)N[C@H]1c1c[nH]c2ccc(Br)cc12 | 5.24 µM (inactive) | 12.8 µM (inactive) | 13 µM (inactive) | 3.61 µM (inactive) | 7.5 µM (inactive) | 10.9 µM (inactive) | 5.06 µM (inactive) | 9.12 µM (inactive) | 14.4 µM (inactive) | 5.73 µM (inactive) | 9.23 µM (inactive) | 13.9 µM (inactive) | 11.4 µM (inactive) | 13.6 µM (inactive) | 5.38 µM (inactive) | 12.4 µM (inactive) | 15.2 µM (inactive) | 10.9 µM (inactive) | 9.35 µM (inactive) | 12 µM (inactive)
4 | CCCCCCCCCCCCC/C=C1\C[C@H](O)COC1=O | 18.9 µM (inactive) | 18.9 µM (inactive) | 17.5 µM (inactive) | 20.9 µM (inactive) | 15.7 µM (inactive) | 18.1 µM (inactive) | 16.3 µM (inactive) | 15 µM (inactive) | 21 µM (inactive) | 17.3 µM (inactive) | 17.5 µM (inactive) | 19.2 µM (inactive) | – | 16.6 µM (inactive) | 13.7 µM (inactive) | 14.9 µM (inactive) | 18.9 µM (inactive) | 15.4 µM (inactive) | 17.7 µM (inactive) | 14.8 µM (inactive)
5 | C=C1C(=O)OC2/C=C(\C)C(=O)CC3OC(C)(C)OC3(C)CC(OC(=O)/C(C)=C/C)C12 (centres undefined) | 21.9 µM (inactive) | 3.51 µM (inactive) | 14.2 µM (inactive) | 15.9 µM (inactive) | 7.89 µM (inactive) | 14.4 µM (inactive) | 17.9 µM (inactive) | 22.5 µM (inactive) | 10.9 µM (inactive) | 17.1 µM (inactive) | 10.8 µM (inactive) | 20.4 µM (inactive) | 20.6 µM (inactive) | 28.1 µM (inactive) | 14.7 µM (inactive) | 20.7 µM (inactive) | > 80.9 µM (inactive) | 4.69 µM (inactive) | 27.5 µM (inactive) | 13.7 µM (inactive)
6 | COc1cc(C(C)c2cc3c(cc2OCCNC(=O)COc2cc4c(cc2C(C)c2cc(OC)c(OC)c(OC)c2)OCO4)OCO3)cc(OC)c1OC (centres undefined) | > 100 µM (inactive) | > 100 µM (inactive) | 29.6 µM (inactive) | > 100 µM (inactive) | > 100 µM (inactive) | > 100 µM (inactive) | > 100 µM (inactive) | 85.3 µM (inactive) | > 100 µM (inactive) | 22.2 µM (inactive) | 67.3 µM (inactive) | 6.38 µM (inactive) | 49.5 µM (inactive) | > 100 µM (inactive) | > 100 µM (inactive) | 60 µM (inactive) | > 100 µM (inactive) | > 100 µM (inactive) | > 100 µM (inactive) | 6.56 µM (inactive)
7 | CCc1cccc(CC)c1NC(=S)NC(=O)c1ccc(Br)cc1 | 33.6 µM (inactive) | 29.6 µM (inactive) | 23.6 µM (inactive) | 33.2 µM (inactive) | 36.9 µM (inactive) | 27.9 µM (inactive) | 33.8 µM (inactive) | 26.8 µM (inactive) | 18.4 µM (inactive) | 17.7 µM (inactive) | 36.3 µM (inactive) | > 50.4 µM (inactive) | 54.5 µM (inactive) | 18.6 µM (inactive) | 26.4 µM (inactive) | 32.6 µM (inactive) | 40.9 µM (inactive) | 36.5 µM (inactive) | 40.1 µM (inactive) | 32.2 µM (inactive)
8 | COc1cc2c(cc1O)C(C)Cc1cc3c(cc1N(C)CC2)OCO3 (centres undefined) | 13.2 µM (inactive) | 12.1 µM (inactive) | 4.26 µM (inactive) | 5.27 µM (inactive) | 12.9 µM (inactive) | 10 µM (inactive) | 4.15 µM (inactive) | 3.22 µM (inactive) | 3.12 µM (inactive) | 3.35 µM (inactive) | 3.03 µM (inactive) | 23.1 µM (inactive) | 9.25 µM (inactive) | 4.44 µM (inactive) | 2.59 µM (inactive) | 5.94 µM (inactive) | 7.4 µM (inactive) | 3.74 µM (inactive) | 4.01 µM (inactive) | 6.15 µM (inactive)
9 | O=C1CCCCC1CN1CCCCC1 (centres undefined) | > 100 µM (inactive) | > 100 µM (inactive) | > 100 µM (inactive) | > 100 µM (inactive) | > 100 µM (inactive) | > 100 µM (inactive) | > 100 µM (inactive) | > 100 µM (inactive) | > 100 µM (inactive) | > 100 µM (inactive) | > 100 µM (inactive) | > 100 µM (inactive) | > 100 µM (inactive) | > 100 µM (inactive) | > 100 µM (inactive) | > 100 µM (inactive) | > 100 µM (inactive) | > 100 µM (inactive) | > 100 µM (inactive) | –
10 | Oc1ccc(-c2nn3c(CCCCCCCCc4nnc5sc(-c6ccc(O)cc6)nn45)nnc3s2)cc1 | > 100 µM (inactive) | > 100 µM (inactive) | > 100 µM (inactive) | > 100 µM (inactive) | > 100 µM (inactive) | – | > 100 µM (inactive) | > 100 µM (inactive) | > 100 µM (inactive) | > 100 µM (inactive) | > 100 µM (inactive) | > 100 µM (inactive) | > 100 µM (inactive) | > 100 µM (inactive) | > 100 µM (inactive) | > 100 µM (inactive) | > 100 µM (inactive) | > 100 µM (inactive) | > 100 µM (inactive) | > 100 µM (inactive)
11 | COC(=O)c1ccc(C)cc1CC1Cc2cc(C)ccc2C1=O (centres undefined) | > 100 µM (inactive) | > 100 µM (inactive) | > 100 µM (inactive) | > 100 µM (inactive) | > 100 µM (inactive) | > 100 µM (inactive) | > 100 µM (inactive) | > 100 µM (inactive) | > 100 µM (inactive) | > 100 µM (inactive) | > 100 µM (inactive) | > 100 µM (inactive) | > 100 µM (inactive) | > 100 µM (inactive) | – | > 100 µM (inactive) | > 100 µM (inactive) | > 100 µM (inactive) | > 100 µM (inactive) | > 100 µM (inactive)
12 | COC(=O)C1N=CSCC1(C)O (centres undefined) | > 100 µM (inactive) | > 100 µM (inactive) | > 100 µM (inactive) | > 100 µM (inactive) | > 100 µM (inactive) | > 100 µM (inactive) | > 100 µM (inactive) | > 100 µM (inactive) | > 100 µM (inactive) | > 100 µM (inactive) | > 100 µM (inactive) | > 100 µM (inactive) | > 100 µM (inactive) | > 100 µM (inactive) | > 100 µM (inactive) | > 100 µM (inactive) | > 100 µM (inactive) | > 100 µM (inactive) | – | > 100 µM (inactive)
13 | CC(CN(C)C)C(O)(c1ccccc1)c1ccccc1 (centres undefined) | > 100 µM (inactive) | > 100 µM (inactive) | > 100 µM (inactive) | 27.2 µM (inactive) | > 100 µM (inactive) | > 100 µM (inactive) | > 100 µM (inactive) | > 100 µM (inactive) | > 100 µM (inactive) | > 100 µM (inactive) | > 100 µM (inactive) | > 100 µM (inactive) | > 100 µM (inactive) | > 100 µM (inactive) | > 100 µM (inactive) | > 100 µM (inactive) | > 100 µM (inactive) | > 100 µM (inactive) | > 100 µM (inactive) | > 100 µM (inactive)
14 | COC(=O)[C@@]1(O)CC(C)C=C1C=O (some centres undefined) | > 100 µM (inactive) | > 100 µM (inactive) | > 100 µM (inactive) | 66.5 µM (inactive) | 39.4 µM (inactive) | > 100 µM (inactive) | 67.5 µM (inactive) | > 100 µM (inactive) | > 100 µM (inactive) | 20.6 µM (inactive) | 53.6 µM (inactive) | > 100 µM (inactive) | > 100 µM (inactive) | > 100 µM (inactive) | > 100 µM (inactive) | > 100 µM (inactive) | > 100 µM (inactive) | 40.1 µM (inactive) | 18.2 µM (inactive) | > 100 µM (inactive)
